Among the data in US8481750B2 (Boehringer Ingelheim International GmbH, priority 2009, dated 2013) are IC50 values, retold here.

Sequence of LFA-1 binding to ICAM-1 (P20701 26-1170): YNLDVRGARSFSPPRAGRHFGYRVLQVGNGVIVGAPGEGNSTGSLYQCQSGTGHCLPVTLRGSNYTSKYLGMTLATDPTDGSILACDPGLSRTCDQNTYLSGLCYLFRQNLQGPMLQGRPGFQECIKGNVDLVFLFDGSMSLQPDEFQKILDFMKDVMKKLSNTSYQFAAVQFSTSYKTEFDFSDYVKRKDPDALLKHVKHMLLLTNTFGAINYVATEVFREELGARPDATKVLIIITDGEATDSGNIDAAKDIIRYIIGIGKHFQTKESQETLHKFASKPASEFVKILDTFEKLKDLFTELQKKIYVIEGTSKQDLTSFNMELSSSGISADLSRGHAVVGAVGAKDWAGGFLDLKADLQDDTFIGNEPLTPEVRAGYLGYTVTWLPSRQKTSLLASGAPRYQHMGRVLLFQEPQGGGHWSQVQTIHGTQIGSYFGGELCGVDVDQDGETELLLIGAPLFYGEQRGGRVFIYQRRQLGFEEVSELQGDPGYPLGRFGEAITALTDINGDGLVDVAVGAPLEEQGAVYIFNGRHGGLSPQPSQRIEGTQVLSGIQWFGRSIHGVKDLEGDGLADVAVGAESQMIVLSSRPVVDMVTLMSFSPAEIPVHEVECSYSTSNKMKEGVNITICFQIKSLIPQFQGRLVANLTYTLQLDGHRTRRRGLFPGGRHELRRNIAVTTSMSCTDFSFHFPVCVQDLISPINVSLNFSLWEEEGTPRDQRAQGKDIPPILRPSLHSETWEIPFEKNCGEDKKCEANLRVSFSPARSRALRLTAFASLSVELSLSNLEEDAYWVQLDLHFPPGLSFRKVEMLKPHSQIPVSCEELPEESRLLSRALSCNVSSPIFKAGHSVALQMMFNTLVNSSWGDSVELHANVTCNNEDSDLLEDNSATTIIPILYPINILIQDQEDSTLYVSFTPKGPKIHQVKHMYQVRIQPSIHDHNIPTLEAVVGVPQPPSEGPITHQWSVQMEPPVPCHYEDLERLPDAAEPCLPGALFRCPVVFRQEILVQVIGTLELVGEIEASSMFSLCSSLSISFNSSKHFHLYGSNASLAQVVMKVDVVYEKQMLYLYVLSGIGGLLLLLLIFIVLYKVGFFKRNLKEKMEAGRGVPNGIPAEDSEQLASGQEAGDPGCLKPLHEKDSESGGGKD
Sequence of LFA-1 binding to ICAM-1 (P05107 23-769): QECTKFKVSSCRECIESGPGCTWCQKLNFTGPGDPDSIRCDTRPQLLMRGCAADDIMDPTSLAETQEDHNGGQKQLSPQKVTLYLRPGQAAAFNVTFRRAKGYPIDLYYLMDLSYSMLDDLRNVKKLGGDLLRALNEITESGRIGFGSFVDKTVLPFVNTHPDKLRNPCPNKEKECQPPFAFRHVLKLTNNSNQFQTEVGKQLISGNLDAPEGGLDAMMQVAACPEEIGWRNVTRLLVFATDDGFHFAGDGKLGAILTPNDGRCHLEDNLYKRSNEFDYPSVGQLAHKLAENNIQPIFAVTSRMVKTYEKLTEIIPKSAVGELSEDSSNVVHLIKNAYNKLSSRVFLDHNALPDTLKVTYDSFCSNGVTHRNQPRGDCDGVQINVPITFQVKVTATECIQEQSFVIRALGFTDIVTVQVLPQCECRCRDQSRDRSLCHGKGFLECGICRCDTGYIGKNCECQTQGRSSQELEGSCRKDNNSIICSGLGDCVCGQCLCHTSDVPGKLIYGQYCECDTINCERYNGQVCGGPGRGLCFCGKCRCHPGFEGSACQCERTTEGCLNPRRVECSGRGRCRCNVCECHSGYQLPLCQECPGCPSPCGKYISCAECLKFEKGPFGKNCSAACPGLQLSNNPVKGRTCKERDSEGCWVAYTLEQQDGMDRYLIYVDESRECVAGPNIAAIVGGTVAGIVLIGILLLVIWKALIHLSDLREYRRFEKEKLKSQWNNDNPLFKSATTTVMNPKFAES

This test deals with LFA-1 binding to ICAM-1 (Homo sapiens, UniProt P05107+P20701). The experiment in a line: Inhibition of LFA-1 binding to ICAM-1 (LFA-1/Biotin-sICAM-1 AlphaScreen molecular assay). The note with it: highest compound concentration 1 μM in 1% DMSO, 37° C., 90 minutes. From the text:
Assay to Determine Inhibition of LFA-1 Binding to ICAM-1
This assay protocol is designed to study the direct antagonism, by a test compound, of the interaction of ICAM-1 with the Leukointegrin CD18/CD11a (LFA-1).
The LFA-1/Biotin-sICAM-1 molecular assay measures the ability of test compounds to inhibit binding of LFA-1 to Biotinylated-sICAM using AlphaScreen technology (Ref: Wilson, J, Rossi, C P, Carboni, S, Fremaux, C, Perrin, D, Soto, C, Kosco-Vilbois, M, and Scheer, A: A Homogeneous 384-Well High-Throughput Binding Assay for a TNF Receptor Using Alphascreen Technology. J Biomol Screen 2003; 8:522-532) that uses TS2/4(anti-LFA-1)-custom conjugated AlphaLisa acceptor beads and streptavidin-coated donor beads from PerkinElmer. The assay was performed in white OptiPlates-384 in a volume of 60 μL using assay buffer (Dulbecco's PBS containing calcium and magnesium, 2 mM MgCl2, 0.1 mM PMSF, 0.1% BSA, pH 7.1). To each well, Biotin-sICAM was added followed by purified LFA-1 (in buffer of 50 mM triethylamine, 150 mM NaCl, 1% beta octylglucoside, 2 mM MgCl2 neutralized to pH with 1M Tris-HCl, pH 7.5). For compound testing, compound was added in 5 uL to the above in 25 uL. LFA-1 and Biotin-sICAM-1 were used at concentrations that would yield a signal to background ratio of 8-10. The highest concentration of compound was 1 μM in 1% DMSO. Positive controls were wells without compound containing LFA-1, while blanks were wells without both compound and LFA-1. Plates were mixed and incubated at 37° C. for 90 minutes. This was followed by addition of 15 μL/well TS2/4-congugated acceptor beads diluted in PBS containing 0.1% BSA for a final concentration of 10 μg/mL. The plates were mixed and incubated in the dark for 30 minutes at room temperature followed by addition of 15 μL/well streptavidin-coated donor beads diluted in PBS containing 0.1% BSA at a final concentration of 15 μg/mL. The plates were mixed and incubated in the dark for 60 minutes at room temperature and then read on an EnVision Multilabel Reader using AlphaScreen 384-well OptiPlate protocol.
Take `C[C@@]1(Cc2ccc(C#N)cc2)C(=O)N(c2cc(Cl)cc(Cl)c2)c2ncc(C(=O)NC3(C(=O)NC4(c5ccc(C(=O)N6CCOCC6)cn5)CC4)CC3)n21` [compound 42]: the IC50 worked out at 0.35 nM.
`C[C@@]1(Cc2ccc(C#N)cc2)C(=O)N(c2cc(Cl)cc(Cl)c2)c2ncc(C(=O)NC3(C(=O)NC4(c5cc(C(=O)N6CCCC(C(N)=O)C6)ccn5)CC4)CC3)n21` (stereo partly drawn) [compound 43] showed a half-inhibitory concentration (IC50) of 0.74 nM.
The compound `C[C@@]1(Cc2ccc(C#N)cc2)C(=O)N(c2cc(Cl)cc(Cl)c2)c2ncc(C(=O)NC3(C(=O)NC4(c5cc(C(=O)N6CCCCC6CO)ccn5)CC4)CC3)n21` (stereo partly drawn) [compound 44] displayed an IC50 of 0.88 nM.
`CC(=O)N(C)C1CCN(C(=O)c2cccc(C3(NC(=O)C4(NC(=O)c5cnc6n5[C@](C)(Cc5ccc(C#N)cc5)C(=O)N6c5cc(Cl)cc(Cl)c5)CC4)CC3)n2)C1` (stereo partly drawn) [compound 45] displayed an IC50 of 4.5 nM.
As for `CC(NC(=O)c1ccc(C2(NC(=O)C3(NC(=O)c4cnc5n4[C@](C)(Cc4ccc(C#N)cc4)C(=O)N5c4cc(Cl)cc(Cl)c4)CC3)CC2)nc1)c1ccncc1` (stereo partly drawn) [compound 46], the IC50 was determined as 0.78 nM.
On to `CC(NC(=O)c1cccc(C2(NC(=O)C3(NC(=O)c4cnc5n4[C@](C)(Cc4ccc(C#N)cc4)C(=O)N5c4cc(Cl)cc(Cl)c4)CC3)CC2)n1)c1cccnc1` (stereo partly drawn) [compound 47], for which the IC50 stood at 3.9 nM.
`C[C@@]1(Cc2ccc(C#N)cc2)C(=O)N(c2cc(Cl)cc(Cl)c2)c2ncc(C(=O)NC3(C(=O)NC4(c5cccc(C(=O)N6CC[C@@H](O)C6)n5)CC4)CC3)n21` [compound 48]: the IC50 turned out to be 2.4 nM.
With `C[C@H](CO)NC(=O)c1ccnc(C2(NC(=O)C3(NC(=O)c4cnc5n4[C@](C)(Cc4ccc(C#N)cc4)C(=O)N5c4cc(Cl)cc(Cl)c4)CC3)CC2)c1` [compound 49] the figure was 0.56 nM; with `C[C@@]1(Cc2ccc(C#N)cc2)C(=O)N(c2cc(Cl)cc(Cl)c2)c2ncc(C(=O)NC3(C(=O)NC4(c5ccc(C(=O)NCc6ccncc6)cn5)CC4)CC3)n21` [compound 50], 0.97 nM; with `C[C@@]1(Cc2ccc(C#N)cc2)C(=O)N(c2cc(Cl)cc(Cl)c2)c2ncc(C(=O)NC3(C(=O)NC4(c5cccc(C(=O)N6CC(O)C6)n5)CC4)CC3)n21` [compound 51], 0.58 nM.
As for `C[C@@H](NC(=O)c1ccnc(C2(NC(=O)C3(NC(=O)c4cnc5n4[C@](C)(Cc4ccc(C#N)cc4)C(=O)N5c4cc(Cl)cc(Cl)c4)CC3)CC2)c1)c1ccccc1` [compound 53], the IC50 was 2.4 nM.
On to `CC(=O)NC1CCN(C(=O)c2ccnc(C3(NC(=O)C4(NC(=O)c5cnc6n5[C@](C)(Cc5ccc(C#N)cc5)C(=O)N6c5cc(Cl)cc(Cl)c5)CC4)CC3)c2)C1` (stereo partly drawn) [compound 54], for which the IC50 worked out at 1.2 nM.
On to `C[C@@]1(Cc2ccc(C#N)cc2)C(=O)N(c2cc(Cl)cc(Cl)c2)c2ncc(C(=O)NC3(C(=O)NC4(c5ccc(C(=O)N6CCNCC6)cn5)CC4)CC3)n21` [compound 56], for which the IC50 was determined as 0.6 nM.
`C[C@@]1(Cc2ccc(C#N)cc2)C(=O)N(c2cc(Cl)cc(Cl)c2)c2ncc(C(=O)NC3(C(=O)NC4(c5cccc(C(=O)NCCC(N)=O)n5)CC4)CC3)n21` [compound 57] showed an IC50 of 0.82 nM.
`C[C@@]1(Cc2ccc(C#N)cc2)C(=O)N(c2cc(Cl)cc(Cl)c2)c2ncc(C(=O)NC3(C(=O)NC4(c5cc(C(=O)N6CCOCC6)ccn5)CC4)CC3)n21` [compound 58]: the IC50 stood at 0.7 nM.
In the case of `CN(C)C1CCN(C(=O)c2ccc(C3(NC(=O)C4(NC(=O)c5cnc6n5[C@](C)(Cc5ccc(C#N)cc5)C(=O)N6c5cc(Cl)cc(Cl)c5)CC4)CC3)nc2)C1` (stereo partly drawn) [compound 61], the IC50 is 1.8 nM.
As to `CN(C)CCNC(=O)c1ccnc(C2(NC(=O)C3(NC(=O)c4cnc5n4[C@](C)(Cc4ccc(C#N)cc4)C(=O)N5c4cc(Cl)cc(Cl)c4)CC3)CC2)c1` [compound 62], the IC50 is 1.1 nM.
`CN(C)CCNC(=O)c1cccc(C2(NC(=O)C3(NC(=O)c4cnc5n4[C@](C)(Cc4ccc(C#N)cc4)C(=O)N5c4cc(Cl)cc(Cl)c4)CC3)CC2)n1` [compound 63] showed an IC50 of 1.7 nM.
Compound `C[C@@]1(Cc2ccc(C#N)cc2)C(=O)N(c2cc(Cl)cc(Cl)c2)c2ncc(C(=O)NC3(C(=O)NC4(c5cc(C(=O)NCc6ccncc6)ccn5)CC4)CC3)n21` [compound 64] returned an IC50 of 0.34 nM.
`C[C@@H](NC(=O)c1ccc(C2(NC(=O)C3(NC(=O)c4cnc5n4[C@](C)(Cc4ccc(C#N)cc4)C(=O)N5c4cc(Cl)cc(Cl)c4)CC3)CC2)nc1)c1ccccc1` [compound 65] gave an IC50 of 2.1 nM.
The value for `C[C@@]1(Cc2ccc(C#N)cc2)C(=O)N(c2cc(Cl)cc(Cl)c2)c2ncc(C(=O)NC3(C(=O)NC4(c5ccc(C(=O)NC(CO)CO)cn5)CC4)CC3)n21` [compound 66] was 0.28 nM; that for `C[C@@]1(Cc2ccc(C#N)cc2)C(=O)N(c2cc(Cl)cc(Cl)c2)c2ncc(C(=O)NC3(C(=O)NC4(c5cccc(C(=O)N6CCC[C@@H]6C(N)=O)n5)CC4)CC3)n21` [compound 67] was 2.6 nM.
With `CC(=O)NCCNC(=O)c1cccc(C2(NC(=O)C3(NC(=O)c4cnc5n4[C@](C)(Cc4ccc(C#N)cc4)C(=O)N5c4cc(Cl)cc(Cl)c4)CC3)CC2)n1` [compound 68] the figure was 0.5 nM; with `CC(C)(O)CNC(=O)c1ccnc(C2(NC(=O)C3(NC(=O)c4cnc5n4[C@](C)(Cc4ccc(C#N)cc4)C(=O)N5c4cc(Cl)cc(Cl)c4)CC3)CC2)c1` [compound 69], 0.47 nM; with `C[C@@]1(Cc2ccc(C#N)cc2)C(=O)N(c2cc(Cl)cc(Cl)c2)c2ncc(C(=O)NC3(C(=O)NC4(c5ccc(C(=O)NC6CCC6)cn5)CC4)CC3)n21` [compound 71], 0.74 nM.
`C[C@@]1(Cc2ccc(C#N)cc2)C(=O)N(c2cc(Cl)cc(Cl)c2)c2ncc(C(=O)NC3(C(=O)NC4(c5cc(C(=O)NCc6cccnc6)ccn5)CC4)CC3)n21` [compound 72] yielded an IC50 of 0.45 nM.
For `CC(O)CNC(=O)c1ccc(C2(NC(=O)C3(NC(=O)c4cnc5n4[C@](C)(Cc4ccc(C#N)cc4)C(=O)N5c4cc(Cl)cc(Cl)c4)CC3)CC2)nc1` (stereo partly drawn) [compound 73], the IC50 was found to be 0.37 nM.
`CC(O)CNC(=O)c1cccc(C2(NC(=O)C3(NC(=O)c4cnc5n4[C@](C)(Cc4ccc(C#N)cc4)C(=O)N5c4cc(Cl)cc(Cl)c4)CC3)CC2)n1` (stereo partly drawn) [compound 74]: the IC50 worked out at 1.4 nM.
On to `COCCNC(=O)c1cccc(C2(NC(=O)C3(NC(=O)c4cnc5n4[C@](C)(Cc4ccc(C#N)cc4)C(=O)N5c4cc(Cl)cc(Cl)c4)CC3)CC2)n1` [compound 75], for which the IC50 stood at 2.2 nM.
Consider `C[C@@]1(Cc2ccc(C#N)cc2)C(=O)N(c2cc(Cl)cc(Cl)c2)c2ncc(C(=O)NC3(C(=O)NC4(c5cc(C(=O)NCc6ccco6)ccn5)CC4)CC3)n21` [compound 76], for which the IC50 is 0.79 nM.
The value for `C[C@@]1(Cc2ccc(C#N)cc2)C(=O)N(c2cc(Cl)cc(Cl)c2)c2ncc(C(=O)NC3(C(=O)NC4(c5ccc(C(=O)NCCN)cn5)CC4)CC3)n21` [compound 78] was 0.68 nM.
`C[C@@]1(Cc2ccc(C#N)cc2)C(=O)N(c2cc(Cl)cc(Cl)c2)c2ncc(C(=O)NC3(C(=O)NC4(c5cc(C(=O)NCc6ccccn6)ccn5)CC4)CC3)n21` [compound 79] showed an IC50 of 0.67 nM.
Compound `C[C@@]1(Cc2ccc(C#N)cc2)C(=O)N(c2cc(Cl)cc(Cl)c2)c2ncc(C(=O)NC3(C(=O)NC4(c5cc(C(=O)N6CCCC(CO)C6)ccn5)CC4)CC3)n21` (stereo partly drawn) [compound 80] had an IC50 of 0.99 nM.
For the compound `C[C@@]1(Cc2ccc(C#N)cc2)C(=O)N(c2cc(Cl)cc(Cl)c2)c2ncc(C(=O)NC3(C(=O)NC4(c5ccc(C(=O)NCc6ccccc6)cn5)CC4)CC3)n21` [compound 81], the half-inhibitory concentration (IC50) was determined as 1.5 nM.
Regarding `C[C@@H](NC(=O)c1cccc(C2(NC(=O)C3(NC(=O)c4cnc5n4[C@](C)(Cc4ccc(C#N)cc4)C(=O)N5c4cc(Cl)cc(Cl)c4)CC3)CC2)n1)C(N)=O` [compound 83], the IC50 was 1.3 nM.
As for `C[C@@]1(Cc2ccc(C#N)cc2)C(=O)N(c2cc(Cl)cc(Cl)c2)c2ncc(C(=O)NC3(C(=O)NC4(c5ccc(C(=O)NCCc6cccnc6)cn5)CC4)CC3)n21` [compound 84], the IC50 was determined as 0.53 nM.
Take `C[C@@]1(Cc2ccc(C#N)cc2)C(=O)N(c2cc(Cl)cc(Cl)c2)c2ncc(C(=O)NC3(C(=O)NC4(c5ccc(C(=O)N6CCC(CO)CC6)cn5)CC4)CC3)n21` [compound 85]: the IC50 was determined as 0.34 nM.
Take `CC(C)(CO)NC(=O)c1ccc(C2(NC(=O)C3(NC(=O)c4cnc5n4[C@](C)(Cc4ccc(C#N)cc4)C(=O)N5c4cc(Cl)cc(Cl)c4)CC3)CC2)nc1` [compound 86]: the IC50 was found to be 0.56 nM.
As for `C[C@@]1(Cc2ccc(C#N)cc2)C(=O)N(c2cc(Cl)cc(Cl)c2)c2ncc(C(=O)NC3(C(=O)NC4(c5cc(C(=O)N6CC(O)C6)ccn5)CC4)CC3)n21` [compound 87], the IC50 was determined as 0.98 nM.
